# Measurements published in the supplement of paper PMC5908809.
# Tests used:
# Test in all cases: relative IC50 (inflection point of fitted viability curve, relative to fitted max inhibition); higher = less sensitive
# Conditions in all cases: 72 h
# [1] = system: DERL-7 (IL-2 2.5 ng/mL)
# Protocol: (§1)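 Drug sensitivity and resistance testing: 5 concentrations over a 10,000-fold range, 72 h at 37 °C, viability by CellTiter-Glo normalised to DMSO and benzethonium chloride controls. IC50 is the inflection point of a logistic fit (min fixed at 0, max fitted), so it is relative to the fitted maximal inhibition. Kept only where fitted max inhibition is at least 50%.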
# [2] = system: IMC-1 (IL-2 20 ng/mL)
# Protocol: as §1
# [3] = system: normal primary NK cells, pool 3 (3 donors) (IL-2 2.5 ng/mL)
# Protocol: as §1
# [4] = system: SNK-6 (IL-2 2.5 ng/mL)
# Protocol: as §1
# [5] = system: KHYG-1 (IL-2 2.5 ng/mL)
# Protocol: as §1
# [6] = system: NK-92 (IL-2 2.5 ng/mL)
# Protocol: as §1
# [7] = system: NKL (IL-2 2.5 ng/mL)
# Protocol: as §1
# [8] = system: NK-YS (IL-2 2.5 ng/mL)
# Protocol: as §1
# [9] = system: normal primary NK cells, pool 2 (3 donors) (IL-2 2.5 ng/mL)
# Protocol: as §1
# [10] = system: KAI3 (IL-2 2.5 ng/mL)
# Protocol: as §1
# [11] = system: YT (IL-2 2.5 ng/mL)
# Protocol: as §1
Compound,relative IC50 [1] [nM],relative IC50 [2] [nM],relative IC50 [3] [nM],relative IC50 [4] [nM],relative IC50 [5] [nM],relative IC50 [6] [nM],relative IC50 [7] [nM],relative IC50 [8] [nM],relative IC50 [9] [nM],relative IC50 [10] [nM],relative IC50 [11] [nM]
CO[C@H]1C[C@@H]2CC[C@@H](C)[C@@](O)(O2)C(=O)C(=O)N2CCCC[C@H]2C(=O)O[C@H]([C@H](C)C[C@@H]2CC[C@@H](OCCO)[C@H](OC)C2)CC(=O)[C@H](C)/C=C(\C)[C@@H](O)[C@@H](OC)C(=O)[C@H](C)C[C@H](C)/C=C/C=C/C=C/1C [Everolimus],0.94,> 100,> 100,–,–,–,–,–,–,–,–
CC(C)(C)NC(=O)[C@H]1CC[C@H]2[C@@H]3CC[C@H]4NC(=O)C=C[C@]4(C)[C@H]3CC[C@]12C [Finasteride],–,–,–,> 10000,–,–,–,–,–,–,–
COc1cc(Nc2ncc(F)c(Nc3ccc4c(n3)N(COP(=O)(O)O)C(=O)C(C)(C)O4)n2)cc(OC)c1OC [Fostamatinib],–,> 2500,–,–,–,–,–,–,–,–,–
O=C(NOCCO)c1ccc2cncn2c1Nc1ccc(I)cc1F [GDC-0623],–,> 2500,–,–,25.6,> 2500,22.1,–,–,–,–
Cc1cccc(-c2nn3c(c2-c2ccnc4ccc(C(N)=O)cc24)CCC3)n1 [Galunisertib],–,> 1000,> 1000,–,–,–,> 1000,> 1000,> 1000,–,–
CC(C)Cn1cnc2c(N)nc3ccccc3c21 [Imiquimod],–,–,–,89.6,–,–,–,–,–,–,–
CC[C@H](C)C(=O)O[C@H]1C[C@@H](C)C=C2C=C[C@H](C)[C@H](CC[C@@H]3C[C@@H](O)CC(=O)O3)[C@H]21 [Lovastatin],–,–,> 10000,–,–,–,3520,1940,> 10000,–,–
C=CCn1c(=O)c2cnc(Nc3ccc(N4CCN(C)CC4)cc3)nc2n1-c1cccc(C(C)(C)O)n1 [MK1775],185,361,–,156,59.3,93.8,57.2,227,–,95.7,190
CNC(=O)c1ccc2cc([C@@]3(O)CCn4cncc43)ccc2c1 [Orteronel],–,–,> 10000,–,–,–,–,> 10000,> 10000,> 10000,–
Cc1ccc(Nc2nccc(N(C)c3ccc4c(C)n(C)nc4c3)n2)cc1S(N)(=O)=O [Pazopanib],–,–,> 10000,31.3,–,–,–,–,–,–,–
O=C(NC[C@H](O)CO)c1ccncc1Nc1ccc(I)cc1F [Pimasertib],–,–,–,> 10000,83,–,49,–,–,–,–
CCC(C)(C)C(=O)O[C@H]1C[C@@H](C)C=C2C=C[C@H](C)[C@H](CC[C@@H]3C[C@@H](O)CC(=O)O3)[C@H]21 [Simvastatin],–,–,–,–,–,–,2450,2380,–,–,–
CCN(CC)CCNC(=O)c1c(C)[nH]c(/C=C2\C(=O)Nc3ccc(F)cc32)c1C [Sunitinib],–,> 1000,–,–,> 1000,> 1000,> 1000,–,–,–,–
Cn1ncnc1[C@H]1c2n[nH]c(=O)c3cc(F)cc(c23)N[C@@H]1c1ccc(F)cc1 [Talazoparib],–,164,–,134,93.8,59.8,2.3,22.2,–,28.1,–
O=C1NC(=O)[C@@H](c2cn3c4c(cccc24)CCC3)[C@@H]1c1c[nH]c2ccccc12 [Tivantinib],347,310,–,50.8,221,115,370,118,–,167,238
CC[C@]1(O)C[C@H]2CN(CCc3c([nH]c4ccccc34)[C@@](C(=O)OC)(c3cc4c(cc3OC)N(C=O)[C@H]3[C@@](O)(C(=O)OC)[C@H](OC(C)=O)[C@]5(CC)C=CCN6CC[C@]43[C@@H]65)C2)C1 [Vincristine],3.38,3.41,–,4.74,3.14,9.88,2.9,5.45,–,7.9,3.6
